Data set [1] deals with methoxamine treated rabbits. Briefly: Early after depolarizations (EAD) and polymorphic ventricular tachycardia (PVT) in methoxamine treated anesthetized rabbits. Format: in vivo, New Zealand White rabbits. The settings on record: for EAD: Magnitude of the maximum early after depolarization amplitude as a percent of the monophasic action potential amplitude (APA) / MAPD90: Maximum increase in the ventricular monophasic action potential duration from the methoxamine infusion baseline, measured at 90% repolarization / PVT: Ratio of the number of animals that developed polymorphic ventricular tachycardia to the total number of animals evaluated / QTc: Maximum increase in QTc interval from the methoxamine infusion baseline: continuous intravenous infusion over 1 hour, methoxamine 10 µg/kg/minute. Here is the method: The Formula I compounds were evaluated for their ability to produce early after depolarizations (EAD) and polymorphic ventricular tachycardia (PVT) in methoxamine treated rabbits. The method used was as follows:
Male New Zealand White rabbits (2.5 - 3.5 kg,) were pretreated with subcutaneous morphine sulfate (5 mg/kg) 30 minutes prior to anesthesia. Anesthesia was induced by infusion of α-chloralose (90 - 120 mg/kg) through a marginal ear vein over a period of 20 to 30 minutes. A tracheotomy was performed and the rabbit was respirated with room air (5 - 6 cc/kg) using a small animal ventilator (Columbus Instruments, Columbus, OH). Respiration rate, and tidal volume were adjusted, and supplemental oxygen administered to maintain arterial blood gases and pH within normal physiologic ranges. Catheters were placed in a jugular vein and carotid artery for administration of drugs, and measurement of arterial blood pressure, respectively. A 4 French monophasic action potential catheter was introduced through a jugular vein for monitoring of right ventricular monophasic action potential duration which was measured at 90% repolarization (MAPD90), A lead II ECG and arterial blood pressure were monitored throughout the experiments.
All records were obtained on a multichannel recorder (Gould ES 2000, Cleveland, OH) and experiments were continuously recorded on FM magnetic tape (TEAC 501, Montebello, CA) for subsequent playback and analysis.
Following experimental preparation, the rabbits were allowed to equilibrate for 10 minutes before baseline measurements of heart rate, aortic blood pressure, and QTc interval were made. During the equilibration period, monophasic action potentials were monitored and the catheter adjusted to produce action potentials with a stable amplitude. Following baseline measurements, the α1 agonist methoxamine was infused at a rate of 10 µg/kg/minute at an infusion volume of 12.0 ml/hr. After 15 minutes of methoxamine administration, intravenous infusion of saline (vehicle control) or a class III agent was begun. All agents were administered as a continuous infusion over a 1 hour period. Measurement of heart rate, aortic blood pressure. QTc interval (as defined below), and MAPD90 were repeated at several time points during drug administration to provide dose-response relationships. QTc and MAPD90 were also monitored to insure that maximal class III effects on these parameters had been achieved.
Total accumulated dose at the first incidence of PVT was also measured. Repolarization arrhythmias were characterized as early after depolarizations and extrasystoles during repolarization which produced extrasystoles in lead II ECG. PVT was considered to have occurred if 3 or more closely coupled repetitive extrasystoles with a twisting or torsioning QRS morphology were observed.
QT intervals were corrected for heart rate changes using the formula QTc = QT/square root R-R interval. EADs were compared between treatment groups at stable monophasic action potential amplitudes (APA) and are reported as a percent of the APA.
Examples of Formula I compounds evaluated in this manner are collected in Table II. A measure of Class III antiarrhythmic activity is indicated by an increase in QTc and MAPD90. The proarrhythmic potential is indicated by the incidence and magnitude of the EADs and by the ratio of the incidence of PVT to the total number of animals tested. The corresponding data for ibutilide, a compound of U.S. Patent 5,155,268, and the racemc forms Examples (R.S) (compounds of PCT WO 91/01299) are shown for comparison.

The subject of data set [2] is rabbit papillary muscle. Briefly: Electrophysiological activity in isolated, perfused rabbit cardiac tissue (effective refractory period). The settings on record: drug concentration of 10^-5M; for activation at 10 µM: Oryctolagus cuniculus. On the set-up: species or system New Zealand White rabbits. On the procedure: According to Scheme 1, in Step I, (4-methanesulfonylamino)-γ-oxobenzenebutanoic acid (II, prepared as described in EP 164 865) is convened to the N-ethylamide (III). Standard amide forming reagents such as dicyclohexylcarbodiimide or preferably isobutyl chloroformate can be used for this purpose. In Step II the ketone of III is reduced with the chiral reagent (-)-B-chlorodiisopinocamphenylborane in tetrahydrofuran. The reaction is carried out below 0°C and preferably at -25 to -35°C. A nonaqueous work up is used to facilitate isolation of the water soluble product. The (S)-(-) enantiomer of the chiral alcohol is obtained. Purification of this alcohol by recrystallization from acetonitrile, methanol, ethanol, tert-butyl methyl ether or mixtures thereof gives IV with high enantiomeric purity. In Step III the amide of IV is reduced with sodium bis-(2-methoxyethoxy)aluminum hydride in tetrahydrofuran at 24°C. A neutral nonaqueous work up is employed to facilitate isolation of the water soluble product (V). Alkylation of V with appropriately substituted alkyl bromides (R3CH2Br) to give the compounds (I) of this invention is accomplished in Step IV. The preferred conditions for this reaction employ acetonitrile as solvent and the weakly basic sodium bicarbonate to neutralize the hydrogen bromide generated by the reaction. The reaction is usually carried out at the reflux temperature (81°C). [drawing 2] The Formula I compounds were evaluated for electrophysiological activity in an isolated, perfused rabbit cardiac tissue system. The method used was as follows:
New Zealand White rabbits of either sex (1.5-2.0 kg) were anesthetized and their hearts removed. The heart was immersed in ice cold perfusate while the right atria (RA), papillary muscles (PAP), and right ventricular muscle strips (RV) were isolated. The perfusate was continuously oxygenated with 95% oxygen and 5% carbon dioxide and contained the following in mM concentrations: NaCI 118.0; KCl 5.4; NaHCO3 25.0; MgCl2 1.2: KH2PO4 1.0; CaCl2 2.4; glucose […] and pyruvic acid 2.0. During hypoxic conditions the perfusate was exposed to a mixture of 83% nitrogen, 10% carbon dioxide and 7% oxygen. The pH during normoxia was approximately 7.4 and dropped to approximately 7.2 during hypoxic conditions.
The tissues were individually mounted on a plexiglass holder containing platinum stimulating electrodes and suspended in a 100 ml bath maintained at 30°C by a circulating heat pump. All tissues were attached by silk suture to a force-displacement transducer and a tissue-dependent preload of 500-1000 mg was applied. RA were allowed to contract spontaneously. RV and PAP were stimulated at 2X threshold with 4 msec rectangular pulses at a frequency of 1 and 3 Hz. (Effective refractory period measurements percent increment over control are ERPI and ERP3, conduction time measurements are CT1 and CT3). Between measurements those tissues were stimulated at a resting pace of 2 Hz. Each tissue served as its own baseline control and was allowed an equilibration period of two hours prior to experiments. During this period the perfusate was changed every 10-15 minutes.
Working solutions of the drugs were prepared by dissolving the drugs in distilled water and one drop of NaOH/ml to aid in dissolution (pH 9.4).
Measurements were made on each set of tissues after exposure to 10^-7, 10^-6, or 10^-5M drug for 15 minutes; and 10^-5M drug under hypoxic conditions for 15 minutes.
Automaticity (RATE), force of contraction (FOC) and threshold were measured directly on a polygraph. The ERP of cardiac tissues by definition is the longest coupling interval between the basic drive (S1) and the premature impulse (S2) that fails to propagate through the tissue. The S2 stimulus was introduced after every eighth Sl which allowed time for stabilization of refractoriness. Refractory period measurements were made via a digital timing circuit. […]

[3] abbreviates: value in parentheses in EAD column.
Setting [4] is: pacing rate of 1 Hz, read-out: ERP1: percent increase in the effective refractory period over control values.
[5] abbreviates: pacing rate of 3 Hz, read-out: ERP3: percent increase in the effective refractory period over control values.

The text below walks through data of patent EP0802900B1, “ANTIARRHYTHMIC (S)-ENANTIOMERS OF METHANESULFONAMIDES” (priority 1995, dated 1996).

Read-outs that look alike come from different tables or passages of the source.

With “(S)-(-)-N-[4-[4-[Ethyl(6-fluoroheptyl)amino]-1-hydroxybutyl]phenyl]methanesulfonamide, (E)-2-Butenedioate (2:1 salt) [Example 2]”, in data set [1], the “EAD: Magnitude of the maximum early after depolarization amplitude as a percent of the monophasic action potential amplitude (APA)” value stood at 0%; the “MAPD90: Maximum increase in the ventricular monophasic action potential duration from the methoxamine infusion baseline, measured at 90% repolarization” value (“MAPD90: Maximum increase … at 90% repolarization” below) is listed as “+88 m sec”; the “PVT: Ratio of the number of animals that developed polymorphic ventricular tachycardia to the total number of animals evaluated” value (from here on “PVT: Ratio”) is on record as 0/16; the “QTc: Maximum increase in QTc interval from the methoxamine infusion baseline” value (shortened to “QTc: Maximum increase in QTc interval”) was “+119 m sec”. Moreover, the “ERP1: percent increase in the effective refractory period over control values” in data set [2] (pacing rate of 1 Hz) was found to be 30.7%. In data set [2] (pacing rate of 3 Hz), the “ERP3: percent increase in the effective refractory period over control values” was found to be 8.7%.

On to “(S)-(-)-N-[4-[4-[Ethyl(7-fluoroheptyl)amino]-1-hydroxybutyl]phenyl] methanesulfonamide, (E)-2-Butenedioate (2:1 salt) [Example 1]”, for which, in data set [1], the “EAD: Magnitude of the maximum early after depolarization amplitude as a percent of the monophasic action potential amplitude (APA)” value is on record as 0%; the “MAPD90: Maximum increase … at 90% repolarization” value was “+70 m sec”; the “PVT: Ratio” value was 0/16; the “QTc: Maximum increase in QTc interval” value is “+112 m sec”. In addition, the “ERP1: percent increase in the effective refractory period over control values” in data set [2] (pacing rate of 1 Hz) was determined as 43.5%. For the same compound, in data set [2] (pacing rate of 3 Hz), the “ERP3: percent increase in the effective refractory period over control values” worked out at 26.1%.

As for `CCN(CCCCCC(C)F)CCCC(O)c1ccc(NS(C)(=O)=O)cc1` (racemic) [(R,S) 2], in data set [1], the “EAD: Magnitude of the maximum early after depolarization amplitude as a percent of the monophasic action potential amplitude (APA)” value is given as 63%; the “MAPD90: Maximum increase … at 90% repolarization” value is reported as “+141 m sec”; the “PVT: Ratio” value is 3/6; the “QTc: Maximum increase in QTc interval” value is “+166 m sec”. In data set [1] (setting [3]), the “Total accumulated dose of test compound when the maximum EAD was measured” value (“Total accumulated dose of test compound” for short) was found to be 1 mg/kg. The “Total accumulated dose at the first incidence of PVT” value (“Total accumulated dose … of PVT” for short) in data set [1] (value in parentheses in PVT) was 0.2 mg/kg.

With `CCCCCCCN(CC)CCCC(O)c1ccc(NS(C)(=O)=O)cc1` (stereo not drawn) [Ibutilide, ibutilide], in data set [1], the “MAPD90: Maximum increase … at 90% repolarization” value is “+114 m sec” and the “QTc: Maximum increase in QTc interval” value is “+95 m sec”. In data set [1] (rabbit, in vivo), the “Total accumulated dose … of PVT” value is 1 mg/kg and the “Total accumulated dose of test compound” value was 4 mg/kg. The activation at 10 µM in data set [2] (setting [4]) came out at 18%. For the same compound, the activation at 10 µM in data set [2] (setting [5]) was determined as 15.8%.

Consider `CCN(CCCCCCCF)CCCC(O)c1ccc(NS(C)(=O)=O)cc1` (racemic) [(R,S) 1], for which, in data set [1], the “EAD: Magnitude of the maximum early after depolarization amplitude as a percent of the monophasic action potential amplitude (APA)” value is reported as 52%; the “MAPD90: Maximum increase … at 90% repolarization” value is on record as “+128 m sec”; the “PVT: Ratio” value is recorded as 1/6; the “QTc: Maximum increase in QTc interval” value was “+143 m sec”. Besides, the “Total accumulated dose of test compound” value in data set [1] (setting [3]) was 0.5 mg/kg. In addition, the “Total accumulated dose … of PVT” value in data set [1] (value in parentheses in PVT) is recorded as 2 mg/kg.

Take `CCN(CCCCCC(C)(C)F)CCCC(O)c1ccc(NS(C)(=O)=O)cc1` (racemic) [(R,S) 3]: in data set [1], the “EAD: Magnitude of the maximum early after depolarization amplitude as a percent of the monophasic action potential amplitude (APA)” value is listed as 35%; the “MAPD90: Maximum increase … at 90% repolarization” value is “+96 m sec”; the “PVT: Ratio” value was 1/6; the “QTc: Maximum increase in QTc interval” value is “+136 m sec”. In data set [1] (setting [3]), the “Total accumulated dose of test compound” value was 0.25 mg/kg. In data set [1] (value in parentheses in PVT), the “Total accumulated dose … of PVT” value stood at 0.2 mg/kg.

As to `CCN(CCCCCC(C)(C)F)CCC[C@H](O)c1ccc(NS(C)(=O)=O)cc1` [Example 3, (S)-(-)-N-[4-[4-[Ethyl(6-fluoro-6-methylheptyl)amino]-1-hydroxybutyl]phenyl]-methanesulfonamide], in data set [1], the “EAD: Magnitude of the maximum early after depolarization amplitude as a percent of the monophasic action potential amplitude (APA)” value is recorded as 0%; the “MAPD90: Maximum increase … at 90% repolarization” value is listed as “+75 m sec”; the “PVT: Ratio” value was 0/16; the “QTc: Maximum increase in QTc interval” value was “+82 m sec”. The activation at 10 µM in data set [2] (setting [4]) stood at 21.4%. Further, the activation at 10 µM in data set [2] (setting [5]) was found to be 25.4%.
